Calls of active or inactive are those of the source. The calls are words filed in the database; no cut-off is given here.
Legend:
[1] = target: T1, Dual specificity tyrosine-phosphorylation-regulated kinase 1A (Homo sapiens, UniProt Q13627); assay: Inhibition of DYRK1A (unknown origin) at 10 uM relative to control
[2] = target: T2, Casein kinase I delta/epsilon (Homo sapiens, UniProt P48730+P49674); assay: Inhibition of CK-1 delta/epsilon (unknown origin) at 10 uM relative to control; assay type: protein-complex assay
Target sequence in this assay (P48730 whole entry, looked up): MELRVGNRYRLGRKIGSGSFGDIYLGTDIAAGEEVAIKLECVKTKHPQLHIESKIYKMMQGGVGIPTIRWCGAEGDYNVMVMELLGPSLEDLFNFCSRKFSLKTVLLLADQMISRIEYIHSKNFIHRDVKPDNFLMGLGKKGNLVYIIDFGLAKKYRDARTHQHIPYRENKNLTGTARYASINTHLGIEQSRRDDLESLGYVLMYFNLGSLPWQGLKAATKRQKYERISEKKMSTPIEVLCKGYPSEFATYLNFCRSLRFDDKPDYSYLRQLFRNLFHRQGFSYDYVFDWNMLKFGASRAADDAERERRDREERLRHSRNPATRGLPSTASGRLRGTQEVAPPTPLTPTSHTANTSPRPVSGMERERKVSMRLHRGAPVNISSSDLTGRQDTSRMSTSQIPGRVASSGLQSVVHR
Target sequence in this assay (P49674 whole entry, looked up): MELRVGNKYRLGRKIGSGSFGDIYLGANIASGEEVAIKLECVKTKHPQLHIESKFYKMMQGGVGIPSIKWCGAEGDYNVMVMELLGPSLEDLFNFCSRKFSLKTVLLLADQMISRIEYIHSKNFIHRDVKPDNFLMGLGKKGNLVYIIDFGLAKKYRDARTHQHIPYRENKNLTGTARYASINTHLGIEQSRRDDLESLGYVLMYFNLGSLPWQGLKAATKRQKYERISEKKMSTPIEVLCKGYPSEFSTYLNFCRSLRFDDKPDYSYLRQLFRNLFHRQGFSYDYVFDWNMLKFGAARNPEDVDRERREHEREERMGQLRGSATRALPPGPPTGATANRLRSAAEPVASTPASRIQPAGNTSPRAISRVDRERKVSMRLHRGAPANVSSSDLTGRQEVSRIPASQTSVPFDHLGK

[3] = target: T3, Cyclin-dependent kinase 5 (Homo sapiens, UniProt Q00535); assay: Inhibition of CDK5 (unknown origin) at 10 uM relative to control
Target sequence in this assay (Q00535 whole entry, looked up): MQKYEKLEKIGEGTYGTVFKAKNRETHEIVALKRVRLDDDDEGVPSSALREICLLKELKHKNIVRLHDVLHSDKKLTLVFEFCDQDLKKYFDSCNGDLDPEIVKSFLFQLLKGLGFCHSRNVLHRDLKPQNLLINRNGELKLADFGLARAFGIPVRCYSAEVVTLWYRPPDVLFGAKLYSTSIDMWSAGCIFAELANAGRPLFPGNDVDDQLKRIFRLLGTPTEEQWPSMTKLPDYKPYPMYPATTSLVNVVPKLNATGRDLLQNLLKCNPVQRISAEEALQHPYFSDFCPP

[4] = target: T4, Serine/threonine-protein kinase pim-1 (Homo sapiens, UniProt P11309); assay: Inhibition of PIM1 (unknown origin) at 10 uM relative to control
Target sequence in this assay (P11309 whole entry, looked up): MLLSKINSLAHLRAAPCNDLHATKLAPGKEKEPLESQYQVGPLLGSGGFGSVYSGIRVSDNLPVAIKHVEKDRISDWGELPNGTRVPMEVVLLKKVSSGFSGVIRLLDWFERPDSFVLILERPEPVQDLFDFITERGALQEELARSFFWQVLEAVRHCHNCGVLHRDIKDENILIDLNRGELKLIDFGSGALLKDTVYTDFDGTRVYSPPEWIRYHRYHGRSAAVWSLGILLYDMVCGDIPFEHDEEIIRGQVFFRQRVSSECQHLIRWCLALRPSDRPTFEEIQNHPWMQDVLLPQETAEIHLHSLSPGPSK

[5] = target: T5, Dual specificity protein kinase CLK1 (Homo sapiens, UniProt P49759); assay: Inhibition of CLK1 (unknown origin) at 10 uM relative to control
Target sequence in this assay (P49759 whole entry, looked up): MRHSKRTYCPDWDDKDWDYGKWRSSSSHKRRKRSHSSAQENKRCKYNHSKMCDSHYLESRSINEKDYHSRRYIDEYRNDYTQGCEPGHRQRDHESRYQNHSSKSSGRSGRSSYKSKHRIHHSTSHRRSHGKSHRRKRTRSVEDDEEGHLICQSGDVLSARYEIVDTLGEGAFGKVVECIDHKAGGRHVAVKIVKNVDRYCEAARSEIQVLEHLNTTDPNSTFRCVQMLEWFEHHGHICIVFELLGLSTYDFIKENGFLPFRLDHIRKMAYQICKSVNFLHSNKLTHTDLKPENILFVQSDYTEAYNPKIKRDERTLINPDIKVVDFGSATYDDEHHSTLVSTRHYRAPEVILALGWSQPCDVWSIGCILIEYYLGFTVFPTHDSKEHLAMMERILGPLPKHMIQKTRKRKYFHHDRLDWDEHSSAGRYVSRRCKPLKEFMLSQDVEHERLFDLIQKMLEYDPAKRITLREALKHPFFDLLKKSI

[6] = target: T6, Cyclin-dependent kinase 9 (Homo sapiens, UniProt P50750); assay: Inhibition of CDK9 (unknown origin) at 10 uM relative to control
[7] = target: T7, Serine/threonine-protein kinase haspin (Homo sapiens) (UniProt Q8TF76); assay: Inhibition of HASPIN (unknown origin) at 10 uM relative to control
T7 sequence (whole entry): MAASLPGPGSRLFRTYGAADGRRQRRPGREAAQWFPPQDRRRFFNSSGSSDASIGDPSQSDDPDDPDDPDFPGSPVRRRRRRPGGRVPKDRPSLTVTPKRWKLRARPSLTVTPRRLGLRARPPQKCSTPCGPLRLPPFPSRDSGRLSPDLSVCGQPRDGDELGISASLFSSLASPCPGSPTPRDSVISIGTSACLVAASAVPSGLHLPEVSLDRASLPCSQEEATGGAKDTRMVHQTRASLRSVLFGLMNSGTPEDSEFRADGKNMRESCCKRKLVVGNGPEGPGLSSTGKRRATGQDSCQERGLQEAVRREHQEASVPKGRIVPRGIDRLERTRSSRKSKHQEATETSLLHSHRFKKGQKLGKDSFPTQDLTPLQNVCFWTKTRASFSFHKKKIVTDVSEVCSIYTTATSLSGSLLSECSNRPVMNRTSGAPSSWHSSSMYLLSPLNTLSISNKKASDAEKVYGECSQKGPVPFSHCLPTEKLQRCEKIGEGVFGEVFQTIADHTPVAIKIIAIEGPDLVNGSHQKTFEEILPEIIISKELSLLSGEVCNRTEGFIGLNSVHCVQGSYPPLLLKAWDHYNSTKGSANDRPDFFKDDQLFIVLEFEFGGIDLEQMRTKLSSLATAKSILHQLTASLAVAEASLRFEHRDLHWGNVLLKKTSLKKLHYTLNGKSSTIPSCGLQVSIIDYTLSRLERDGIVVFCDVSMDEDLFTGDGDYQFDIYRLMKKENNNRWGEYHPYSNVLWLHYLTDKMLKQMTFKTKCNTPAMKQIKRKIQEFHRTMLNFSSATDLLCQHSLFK

[8] = target: T8, Glycogen synthase kinase-3 beta (Homo sapiens, UniProt P49841); assay: Inhibition of GSK3beta (unknown origin) at 10 uM relative to control
Target sequence in this assay (P49841 whole entry, looked up): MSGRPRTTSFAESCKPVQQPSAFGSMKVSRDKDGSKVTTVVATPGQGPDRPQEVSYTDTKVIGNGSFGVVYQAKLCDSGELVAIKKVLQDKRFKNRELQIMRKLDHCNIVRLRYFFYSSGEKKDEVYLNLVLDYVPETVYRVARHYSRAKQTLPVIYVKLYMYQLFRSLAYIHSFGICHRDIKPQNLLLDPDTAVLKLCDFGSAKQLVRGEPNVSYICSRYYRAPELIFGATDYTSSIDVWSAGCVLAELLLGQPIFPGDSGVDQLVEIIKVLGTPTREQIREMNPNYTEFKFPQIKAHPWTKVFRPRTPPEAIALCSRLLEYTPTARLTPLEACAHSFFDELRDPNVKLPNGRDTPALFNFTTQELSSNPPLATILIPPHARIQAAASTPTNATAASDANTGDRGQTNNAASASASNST

[9] = target: T3, Cyclin-dependent kinase 5; assay: Inhibition of CDK5 (unknown origin)
Target sequence in this assay (Q00535 whole entry): as the sequence (Q00535 whole entry, looked up) above

[10] = target: T1, Dual specificity tyrosine-phosphorylation-regulated kinase 1A; assay: Inhibition of DYRK1A (unknown origin)
[11] = target: T8, Glycogen synthase kinase-3 beta; assay: Inhibition of GSK3beta (unknown origin)
Target sequence in this assay (P49841 whole entry): as the sequence (P49841 whole entry, looked up) above

[12] = target: T8, Glycogen synthase kinase-3 beta; assay: Non-competitive inhibition of GSK3beta (unknown origin) at 50 uM by ATP competitive assay
Target sequence in this assay (P49841 whole entry, looked up): as above

[13] = target: T2, Casein kinase I delta/epsilon; assay: Inhibition of CK-1 delta/epsilon (unknown origin); assay type: protein-complex assay
Target sequence in this assay (P48730 whole entry): as the sequence (P48730 whole entry, looked up) above
Target sequence in this assay (P49674 whole entry): as the sequence (P49674 whole entry, looked up) above

[14] = target: T6, Cyclin-dependent kinase 9; assay: Inhibition of CDK9 (unknown origin)
[15] = target: T9, Serine/threonine-protein kinase haspin (Homo sapiens, UniProt Q8TF76); assay: Inhibition of HASPIN (unknown origin)
T9 sequence (Q8TF76 whole entry): T7 sequence (whole entry)

[16] = target: T5, Dual specificity protein kinase CLK1; assay: Inhibition of CLK1 (unknown origin)
Target sequence in this assay (P49759 whole entry): as the sequence (P49759 whole entry, looked up) above

[17] = target: T4, Serine/threonine-protein kinase pim-1; assay: Inhibition of PIM1 (unknown origin)
Target sequence in this assay (P11309 whole entry): as the sequence (P11309 whole entry, looked up) above

T6 sequence (P50750 whole entry): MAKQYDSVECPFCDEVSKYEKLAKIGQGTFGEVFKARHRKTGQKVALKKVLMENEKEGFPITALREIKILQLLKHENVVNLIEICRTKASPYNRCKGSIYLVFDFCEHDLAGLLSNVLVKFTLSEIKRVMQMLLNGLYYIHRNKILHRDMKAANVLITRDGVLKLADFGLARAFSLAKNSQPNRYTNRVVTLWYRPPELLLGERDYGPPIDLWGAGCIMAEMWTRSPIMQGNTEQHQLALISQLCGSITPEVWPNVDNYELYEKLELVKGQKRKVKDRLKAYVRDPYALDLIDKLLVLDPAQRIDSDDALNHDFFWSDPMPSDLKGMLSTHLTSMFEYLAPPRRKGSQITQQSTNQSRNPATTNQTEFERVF

SMILES | inhibition [1] | inhibition [2] | inhibition [3] | inhibition [4] | inhibition [5] | inhibition [6] | inhibition [7] | inhibition [8] | IC50 [9] | IC50 [10] | IC50 [11] | inhibition [12] | IC50 [13] | IC50 [14] | IC50 [15] | IC50 [16] | IC50 [17]
Cc1cc(C)c2cc(CN(CCc3ccccc3)Cc3nnnn3Cc3ccco3)c(=O)[nH]c2c1 | 6% | 12% | 7% | 16% | inactive | 23% | 29% | 25% |  |  |  |  |  |  |  |  | 
Clc1ccccc1OCCc1cc([C@@H]2CCN(Cc3cccc4ncccc34)C2)n[nH]1 | inactive | 28% | inactive | 19% | 11% | 18% | inactive | 5% |  |  |  |  |  |  |  |  | 
Clc1cccc(OCCc2cc([C@@H]3CCN(Cc4cccc5ncccc45)C3)n[nH]2)c1 | inactive | 37% | inactive | 22% | 9% | 29% | 33% | 10% |  |  |  |  |  |  |  |  | 
COc1cc(/C=C2\S/C(=N/c3ccc(C)c(C)c3)NC2=O)ccc1OCc1ccc2ccccc2c1 | 16% | 14% | 11% | 29% | 22% | 29% | 22% | 80% | > 10 µM | > 10 µM | 1080 nM | Active | > 10 µM | > 10 µM | > 10 µM | > 10 µM | > 10 µM

Source: ChEMBL document CHEMBL5032523, “Discovery of thiazolidin-4-one analogue as selective GSK-3β inhibitor through structure based virtual screening” (Bioorg Med Chem Lett, 2021)
